From US20190062305A1, “PYRIDYL OR PYRAZINYL COMPOUNDS CARRYING A METHYL-BOUND ALPHA-AMINO ACID AMIDE GROUP” (ABBVIE DEUTSCHLAND GMBH & CO. KG, priority 2015, published 2019) come the findings set out here.

The structures appear in SMILES notation. Counter-ions that a name gives are not always drawn. Like-named read-outs stand apart in the source and are kept apart here. Some results are limits rather than exact numbers.

One series concerns the target T1, 5-HT2C receptor (Homo sapiens, UniProt P28335).
T1 construct: host or cells: U2OS
Put plainly: Human 5-HT2C functional assay (beta-arrestin2 recruitment, U2OS_HTR2C_β-Arrestin cells). In kind it is cell-based. The note with it: for EC50: beta-arrestin2 recruitment, U2OS_HTR2C_β-Arrestin cells, 1.5 h incubation, read-out: EC50 5-HT2C (potency in functional assay); for Emax: relative efficacy vs response to 10 μM 5-HT or maximal 5-HT effect (100%). In short, it runs like this: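 U2OS cells expressing HTR2C with β-galactosidase complementation, switched to 1% serum medium 24 h post-plating, were treated next day with compound for 1.5 h; chemiluminescence read. Response expressed as % of 10 µM 5-HT or maximal 5-HT effect; EC50 from 4-parameter variable-slope fit.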

Series [1] is described as follows: Metabolic stability in human liver microsomes, unbound intrinsic clearance (Cl int/fu mic). It is filed as in vitro ADME. The note with it: pH 7.4, human liver microsomes 0.25 mg/mL, 0.5 μM compound, NADPH, read-out: Cl int, mic unb. (h) [l/h/kg] (unbound intrinsic clearance, human). In a few lines:
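Compound (0.5 µM) was incubated with human liver microsomes (0.25 mg/mL) in pH 7.4 phosphate buffer at 37 °C with 1.0 mM NADPH, sampling from 0–30 min. Depletion was followed by LC-MS/MS, and CLint was derived from first-order t1/2 per mg protein. Microsomal unbound fraction came from 4 h equilibrium dialysis at 37 °C, giving CLint/fu mic.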

T1 sequence (P28335 33-458): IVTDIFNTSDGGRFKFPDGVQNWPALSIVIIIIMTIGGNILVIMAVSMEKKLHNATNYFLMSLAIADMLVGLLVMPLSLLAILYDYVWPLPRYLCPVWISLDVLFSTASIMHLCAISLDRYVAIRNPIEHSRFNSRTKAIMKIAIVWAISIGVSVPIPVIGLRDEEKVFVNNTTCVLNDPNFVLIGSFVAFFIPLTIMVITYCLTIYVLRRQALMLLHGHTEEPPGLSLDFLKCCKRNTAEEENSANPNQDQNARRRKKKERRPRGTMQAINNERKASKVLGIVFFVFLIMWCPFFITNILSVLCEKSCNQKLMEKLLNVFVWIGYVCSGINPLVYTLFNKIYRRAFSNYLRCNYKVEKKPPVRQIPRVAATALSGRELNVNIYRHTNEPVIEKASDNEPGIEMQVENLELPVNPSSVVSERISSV
T1 sequence (P32121 whole entry partner): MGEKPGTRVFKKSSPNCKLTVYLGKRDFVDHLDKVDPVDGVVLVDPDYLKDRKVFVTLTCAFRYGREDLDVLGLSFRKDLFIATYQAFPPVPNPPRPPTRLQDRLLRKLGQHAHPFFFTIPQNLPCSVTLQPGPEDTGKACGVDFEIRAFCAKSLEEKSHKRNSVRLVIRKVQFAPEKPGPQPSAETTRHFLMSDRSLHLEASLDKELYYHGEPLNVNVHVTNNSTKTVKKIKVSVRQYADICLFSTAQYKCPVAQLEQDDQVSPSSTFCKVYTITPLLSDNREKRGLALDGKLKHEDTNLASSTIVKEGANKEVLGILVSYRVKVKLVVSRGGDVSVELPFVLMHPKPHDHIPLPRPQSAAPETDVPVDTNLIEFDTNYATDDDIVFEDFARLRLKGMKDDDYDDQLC

What is called EC50 is the concentration needed to bring the measured effect to its halfway point. One may read the Emax as the greatest response seen or fitted, relative to the assay's reference. As for `COc1nc(C2=CCC(OC)CC2)c(F)cc1CNC(=O)[C@@H]1CCCN1` (stereo partly drawn) [Example 167, (2S)—N-[[5-Fluoro-2-methoxy-6-(4-methoxycyclohexen-1-yl)-3-pyridyl]methyl]-pyrrolidine-2-carboxamide], at 5-HT2C receptor, the EC50 lay in the range of 200 to 1000 nM and the maximum response (Emax) is > 70%. The CLint scaled at 0.5 μM in series [1] (human, liver microsomes) was < 5 L/h/kg.

Regarding `COCCCc1nc(OC)c(CNC(=O)[C@@H]2CCCN2)cc1F` [Example 168, (2S)—N-[[5-Fluoro-2-methoxy-6-(3-methoxypropyl)-3-pyridyl]methyl]pyrrolidine-2-carboxamide], at 5-HT2C receptor, the EC50 was 200 to 1000 nM and the Emax is > 70%. Besides, the CLint scaled at 0.5 μM in series [1] (human, liver microsomes) is < 5 L/h/kg.

For `COc1nc(NCC2CCC(F)(F)CC2)c(F)cc1CNC(=O)[C@@H]1CCCN1` [Example 169, (2S)—N-[[6-[(4,4-Difluorocyclohexyl)methylamino]-5-fluoro-2-methoxy-3-pyridyl]methyl]pyrrolidine-2-carboxamide; 2,2,2-trifluoroacetic Acid], on 5-HT2C receptor, the 50% effective concentration (EC50) was < 20 nM and the maximum response (Emax) was > 70%. In addition, the CLint scaled at 0.5 μM in series [1] (human, liver microsomes) was < 5 L/h/kg.

As to `COc1nc(NCc2ccccc2)c(F)cc1CNC(=O)[C@@H]1CCCN1` [Example 170, (2S)—N-[[6-(Benzylamino)-5-fluoro-2-methoxy-3-pyridyl]methyl]pyrrolidine-2-carboxamide; 2,2,2-trifluoroacetic Acid], at 5-HT2C receptor, the concentration giving a half-maximal response (EC50) lay within 20 to 200 nM and the maximum response (Emax) is > 70%. For the same compound, the CLint scaled at 0.5 μM in series [1] (human, liver microsomes) is < 5 L/h/kg.

In the case of `CCCN(Cc1ccccc1)c1nc(OC)c(CNC(=O)[C@@H]2CCCN2)cc1F` [Example 171, (2S)—N-[[6-[Benzyl(propyl)amino]-5-fluoro-2-methoxy-3-pyridyl]methyl]-pyrrolidine-2-carboxamide Hydrochloride], at 5-HT2C receptor, the EC50 lay within 200 to 1000 nM and the Emax is > 70%. Also, the CLint scaled at 0.5 μM in series [1] (human, liver microsomes) lay within 5 to 50 L/h/kg.

`COc1nc(C2CCC(OC)CC2)c(F)cc1CNC(=O)[C@@H]1CCCN1` (stereo partly drawn) [Example 172, (2S)—N-[[5-Fluoro-2-methoxy-6-(4-methoxycyclohexyl)-3-pyridyl]methyl]-pyrrolidine-2-carboxamide]: at 5-HT2C receptor, the half-maximal effective concentration (EC50) fell in the range of 20 to 200 nM and the Emax was > 70%. Also, the CLint scaled at 0.5 μM in series [1] (human, liver microsomes) was < 5 L/h/kg.

On to `COc1nc(N2CCOC(c3ccccc3)C2)c(F)cc1CNC(=O)[C@@H]1CCCN1` (stereo partly drawn) [Example 173, (2S)—N-[[5-Fluoro-2-methoxy-6-(2-phenylmorpholin-4-yl)-3-pyridyl]methyl]-pyrrolidine-2-carboxamide; 2,2,2-trifluoroacetic Acid], for which, at 5-HT2C receptor, the EC50 lay within 200 to 1000 nM and the maximum response (Emax) is 50 to 70%. The CLint scaled at 0.5 μM in series [1] (human, liver microsomes) was 5 to 50 L/h/kg.

Regarding `COc1nc(N2CC(C)OC(C)C2)c(F)cc1CNC(=O)[C@@H]1CCCN1` (stereo partly drawn) [Example 174, (2S)—N-[[6-(2,6-Dimethylmorpholin-4-yl)-5-fluoro-2-methoxy-3-pyridyl]methyl]-pyrrolidine-2-carboxamide; 2,2,2-trifluoroacetic Acid], on 5-HT2C receptor, the half-maximal effective concentration (EC50) lay in the range of 200 to 1000 nM and the Emax is 30 to 50%. In series [1] (human, liver microsomes), the CLint scaled at 0.5 μM is < 5 L/h/kg.

On to `COc1nc(N2CC(Oc3ccccc3)C2)c(F)cc1CNC(=O)[C@@H]1CCCN1` [Example 175, (2S)—N-[[5-Fluoro-2-methoxy-6-(3-phenoxyazetidin-1-yl)-3-pyridyl]methyl]-pyrrolidine-2-carboxamide; 2,2,2-trifluoroacetic Acid], for which, on 5-HT2C receptor, the EC50 is 20 to 200 nM and the Emax lay within 50 to 70%. In addition, the CLint scaled at 0.5 μM in series [1] (human, liver microsomes) is 5 to 50 L/h/kg.

As to `COc1nc(N2CC(C)(Oc3ccccc3)C2)c(F)cc1CNC(=O)[C@@H]1CCCN1` [Example 176, (2S)—N-[[5-Fluoro-2-methoxy-6-(3-methyl-3-phenoxy-azetidin-1-yl)-3-pyridyl]methyl]pyrrolidine-2-carboxamide; 2,2,2-trifluoroacetic Acid], at 5-HT2C receptor, the EC50 is < 20 nM and the maximal effect (Emax) is > 70%. Also, the CLint scaled at 0.5 μM in series [1] (human, liver microsomes) was in the range of 5 to 50 L/h/kg.

As to `COc1nc(NCc2ccc(F)cc2)c(F)cc1CNC(=O)[C@@H]1CCCN1` [Example 177, (2S)—N-[[5-Fluoro-6-[(4-fluorophenyl)methylamino]-2-methoxy-3-pyridyl]methyl]-pyrrolidine-2-carboxamide; 2,2,2-trifluoroacetic Acid], at 5-HT2C receptor, the EC50 is 20 to 200 nM and the Emax is > 70%. In addition, the CLint scaled at 0.5 μM in series [1] (human, liver microsomes) is < 5 L/h/kg.

Consider `COc1nc(Nc2ccc(F)cc2)c(F)cc1CNC(=O)[C@@H]1CCCN1` [Example 178, (2S)—N-[[5-Fluoro-6-(4-fluoroanilino)-2-methoxy-3-pyridyl]methyl]pyrrolidine-2-carboxamide; 2,2,2-trifluoroacetic Acid], for which the concentration giving a half-maximal response (EC50) on 5-HT2C receptor lay in the range of 200 to 1000 nM. Moreover, the CLint scaled at 0.5 μM in series [1] (human, liver microsomes) was < 5 L/h/kg.

Regarding `COc1nc(N(C)Cc2ccccc2)c(F)cc1CNC(=O)[C@@H]1CCCN1` [Example 179, (2S)—N-[[6-[N-Benzyl-N-methyl-amino]-5-fluoro-2-methoxy-3-pyridyl]methyl]-pyrrolidine-2-carboxamide; 2,2,2-trifluoroacetic Acid], on 5-HT2C receptor, the half-maximal effective concentration (EC50) lay in the range of 200 to 1000 nM and the Emax is 50 to 70%. In series [1] (human, liver microsomes), the CLint scaled at 0.5 μM is 5 to 50 L/h/kg.

Turning to `COc1nc(N2CCC(C3CCC(C(F)(F)F)CC3)CC2)c(F)cc1CNC(=O)[C@@H]1CCCN1` (stereo partly drawn) [Example 180, (2S)—N-[[5-Fluoro-2-methoxy-6-[4-[4-(trifluoromethyl)cyclohexyl]-1-piperidyl]-3-pyridyl]methyl]pyrrolidine-2-carboxamide; 2,2,2-trifluoroacetic Acid], at 5-HT2C receptor, the EC50 was in the range of 200 to 1000 nM and the Emax is > 70%. In addition, the CLint scaled at 0.5 μM in series [1] (human, liver microsomes) lay in the range of 50 to 500 L/h/kg.

With `COc1nc(N2CC(F)(F)C(F)(F)C(F)(F)C2)c(F)cc1CNC(=O)[C@@H]1CCCN1` [Example 182, (2S)—N-[[5-Fluoro-6-(3,3,4,4,5,5-hexafluoro-1-piperidyl)-2-methoxy-3-pyridyl]-methyl]pyrrolidine-2-carboxamide Hydrochloride], at 5-HT2C receptor, the concentration for a half-maximal effect (EC50) was < 20 nM and the maximum response (Emax) was > 70%. Further, the CLint scaled at 0.5 μM in series [1] was 5 to 50 L/h/kg.

With `COc1nc(N2CC3C(C2)C3(F)F)c(F)cc1CNC(=O)[C@@H]1CCCN1` (stereo partly drawn) [Example 183, (2S)—N-[[6-(6,6-Difluoro-3-azabicyclo[3.1.0]hexan-3-yl)-5-fluoro-2-methoxy-3-pyridyl]methyl]pyrrolidine-2-carboxamide], on 5-HT2C receptor, the half-maximal effective concentration (EC50) was in the range of 20 to 200 nM and the Emax was > 70%. In addition, the CLint scaled at 0.5 μM in series [1] (human, liver microsomes) lay within 5 to 50 L/h/kg.

For the compound `COc1nc(N2CCC3C(C2)C3(F)F)c(F)cc1CNC(=O)[C@@H]1CCCN1` (stereo partly drawn) [Example 184, (2S)—N-[[6-(7,7-Difluoro-4-azabicyclo[4.1.0]heptan-4-yl)-5-fluoro-2-methoxy-3-pyridyl]methyl]pyrrolidine-2-carboxamide; 2,2,2-trifluoroacetic Acid], at 5-HT2C receptor, the half-maximal effective concentration (EC50) fell in the range of 20 to 200 nM and the Emax is > 70%. In addition, the CLint scaled at 0.5 μM in series [1] (human, liver microsomes) lay in the range of 5 to 50 L/h/kg.

Take `COc1nc(NCCCc2ccccc2)c(F)cc1CNC(=O)[C@@H]1CCCN1` [Example 185, (2S)—N-[[5-Fluoro-2-methoxy-6-(3-phenylpropylamino)-3-pyridyl]methyl]-pyrrolidine-2-carboxamide; 2,2,2-trifluoroacetic acid]: on 5-HT2C receptor, the concentration giving a half-maximal response (EC50) is 20 to 200 nM and the Emax was > 70%. Besides, the CLint scaled at 0.5 μM in series [1] (human, liver microsomes) is 5 to 50 L/h/kg.

Consider `COc1nc(NC2CCC2C(F)(F)F)c(F)cc1CNC(=O)[C@@H]1CCCN1` (stereo partly drawn) [Example 186, (2S)—N-[[5-Fluoro-2-methoxy-6-[[2-(trifluoromethyl)cyclobutyl]amino]-3-pyridyl]-methyl]pyrrolidine-2-carboxamide], for which, at 5-HT2C receptor, the EC50 fell in the range of 20 to 200 nM and the Emax is > 70%. Besides, in series [1] (human, liver microsomes), the CLint scaled at 0.5 μM is < 5 L/h/kg.

In the case of `COc1nc(N2CCC(CC(F)(F)F)C2)c(F)cc1CNC(=O)[C@@H]1CCCN1` (stereo partly drawn) [Example 187, (2S)—N-[[5-Fluoro-2-methoxy-6-[3-(2,2,2-trifluoroethyl)pyrrolidin-1-yl]-3-pyridyl]methyl]pyrrolidine-2-carboxamide; 2,2,2-trifluoroacetic Acid], at 5-HT2C receptor, the concentration giving a half-maximal response (EC50) lay within 20 to 200 nM and the maximal response (Emax) was > 70%. The CLint scaled at 0.5 μM in series [1] (human, liver microsomes) lay within 5 to 50 L/h/kg.

With `COc1nc(N2CCCC3(C2)CC3(F)F)c(F)cc1CNC(=O)[C@@H]1CCCN1` (stereo partly drawn) [Example 188, (2S)—N-[[6-(2,2-Difluoro-7-azaspiro[2.5]octan-7-yl)-5-fluoro-2-methoxy-3-pyridyl]methyl]pyrrolidine-2-carboxamide; 2,2,2-trifluoroacetic Acid], on 5-HT2C receptor, the EC50 lay in the range of 20 to 200 nM and the maximal effect (Emax) is > 70%. Moreover, the CLint scaled at 0.5 μM in series [1] fell in the range of 5 to 50 L/h/kg.

`COc1nc(CC2CCOCC2)c(F)cc1CNC(=O)[C@@H]1CCCN1` [Example 189, (2S)—N-[[5-Fluoro-2-methoxy-6-(tetrahydropyran-4-ylmethyl)-3-pyridyl]methyl]-pyrrolidine-2-carboxamide; 2,2,2-trifluoroacetic Acid]: on 5-HT2C receptor, the concentration giving a half-maximal response (EC50) lay in the range of 200 to 1000 nM and the maximum response (Emax) lay in the range of 50 to 70%. In series [1] (human, liver microsomes), the CLint scaled at 0.5 μM is < 5 L/h/kg.

On to `COc1nc(N2CCC(F)(F)C(C(F)F)C2)c(F)cc1CNC(=O)[C@@H]1CCCN1` (stereo partly drawn) [Example 190, (2S)—N-[[6-[3-(Difluoromethyl)-4,4-difluoro-1-piperidyl]-5-fluoro-2-methoxy-3-pyridyl]methyl]pyrrolidine-2-carboxamide Hydrochloride], for which, at 5-HT2C receptor, the EC50 is < 20 nM and the maximum response (Emax) was > 70%. Besides, the CLint scaled at 0.5 μM in series [1] (human, liver microsomes) was < 5 L/h/kg.
